# Results taken from ChEMBL document CHEMBL3885881, “DrugMatrix”.
# Organism: Rattus norvegicus
# Test: DrugMatrix - Regimen: Daily Repeat
# Format: toxicity, organism-based, Sprague-Dawley
# Parameters: regimen Daily Repeat, gender Male, age 6-8 weeks
# Details: in vivo, sc, […], route mini-PUMP - SUBCUTANEOUS, dose 4.2 mg/Kg, vehicle 100 % SALINE; for ABSOLUTE EOSINOPHIL / ABSOLUTE LYMPHOCYTE / ABSOLUTE MONOCYTE / ABSOLUTE SEGMENTED NEUTROPHIL / BASOPHIL / EOSINOPHIL / ERYTHROCYTE COUNT / HEMATOCRIT / HEMOGLOBIN / LEUKOCYTE COUNT / LYMPHOCYTE / MEAN CORPUSCULAR HEMOGLOBIN / MEAN CORPUSCULAR HEMOGLOBIN CONCENTRATION / MEAN CORPUSCULAR VOLUME / MONOCYTE / NEUTROPHIL / NUCLEATED RED BLOOD CELLS / PLATELET COUNT / ABSOLUTE BASOPHIL: tissue Blood; for ALANINE AMINOTRANSFERASE / ALBUMIN / ALKALINE PHOSPHATASE / ASPARTATE AMINOTRANSFERASE / BLOOD UREA NITROGEN / CARBON DIOXIDE / CHLORIDE / CHOLESTEROL / CREATININE / GLUCOSE / LACTATE DEHYDROGENASE / LIPASE / PHOSPHORUS / POTASSIUM / SODIUM / TOTAL BILIRUBIN / TOTAL PROTEIN / URIC ACID: tissue Plasma
# [1] = 72 h, dose level M1, time 3 day
# [2] = 120 h, dose level M1, time 5 day
smiles,measurement,setting,value
CC(C)NCC(O)c1ccc(O)c(O)c1 (stereo not given) [ISOPROTERENOL],ABSOLUTE EOSINOPHIL,[1],46 CELLS/uL
same,ABSOLUTE LYMPHOCYTE,[1],13359 CELLS/uL
same,ABSOLUTE MONOCYTE,[1],389.67 CELLS/uL
same,ABSOLUTE SEGMENTED NEUTROPHIL,[1],972 CELLS/uL
same,BASOPHIL,[1],0%
same,EOSINOPHIL,[1],0.33%
same,ERYTHROCYTE COUNT,[1],5.5 x10E6/uL
same,HEMATOCRIT,[1],32.97%
same,HEMOGLOBIN,[1],12.13 G/DL
same,LEUKOCYTE COUNT,[1],14.77 x10E3/uL
same,LYMPHOCYTE,[1],90.33%
same,MEAN CORPUSCULAR HEMOGLOBIN,[1],22.1 pg
same,MEAN CORPUSCULAR HEMOGLOBIN CONCENTRATION,[1],36.8 G/DL
same,MEAN CORPUSCULAR VOLUME,[1],60.03 fL
same,MONOCYTE,[1],2.67%
same,NEUTROPHIL,[1],6.67%
same,NUCLEATED RED BLOOD CELLS,[1],0.33 /100WBC
same,PLATELET COUNT,[1],1142.67 x10E3/uL
same,ALANINE AMINOTRANSFERASE,[1],50.67 u/L
same,ALBUMIN,[1],3.93 G/DL
same,ALKALINE PHOSPHATASE,[1],337 u/L
same,ASPARTATE AMINOTRANSFERASE,[1],73.67 u/L
same,BLOOD UREA NITROGEN,[1],13.33 mg/dL
same,CARBON DIOXIDE,[1],25.33 mmol/L
same,CHLORIDE,[1],103.67 MEQ/L
same,CHOLESTEROL,[1],77.33 mg/dL
same,CREATININE,[1],0.18 mg/dL
same,GLUCOSE,[1],140.33 mg/dL
same,LACTATE DEHYDROGENASE,[1],151 u/L
same,LIPASE,[1],9 u/L
same,PHOSPHORUS,[1],10.17 mg/dL
same,POTASSIUM,[1],7.09 MEQ/L
same,SODIUM,[1],146.4 MEQ/L
same,TOTAL BILIRUBIN,[1],0.2 mg/dL
same,TOTAL PROTEIN,[1],5.9 G/DL
same,URIC ACID,[1],2.33 mg/dL
same,ABSOLUTE BASOPHIL,[2],0 CELLS/uL
same,ABSOLUTE EOSINOPHIL,[2],84 CELLS/uL
same,ABSOLUTE LYMPHOCYTE,[2],11630 CELLS/uL
same,ABSOLUTE MONOCYTE,[2],485 CELLS/uL
same,ABSOLUTE SEGMENTED NEUTROPHIL,[2],2701 CELLS/uL
same,BASOPHIL,[2],0%
same,EOSINOPHIL,[2],0.5%
same,ERYTHROCYTE COUNT,[2],5.61 x10E6/uL
same,HEMATOCRIT,[2],34.6%
same,HEMOGLOBIN,[2],12.85 G/DL
same,LEUKOCYTE COUNT,[2],14.9 x10E3/uL
same,LYMPHOCYTE,[2],78.5%
same,MEAN CORPUSCULAR HEMOGLOBIN,[2],22.95 pg
same,MEAN CORPUSCULAR HEMOGLOBIN CONCENTRATION,[2],37.15 G/DL
same,MEAN CORPUSCULAR VOLUME,[2],61.75 fL
same,MONOCYTE,[2],3%
same,NEUTROPHIL,[2],18%
same,NUCLEATED RED BLOOD CELLS,[2],0.5 /100WBC
same,PLATELET COUNT,[2],1202 x10E3/uL
same,ALANINE AMINOTRANSFERASE,[2],57 u/L
same,ALBUMIN,[2],4.05 G/DL
same,ALKALINE PHOSPHATASE,[2],244.5 u/L
same,ASPARTATE AMINOTRANSFERASE,[2],74 u/L
same,BLOOD UREA NITROGEN,[2],11.5 mg/dL
same,CARBON DIOXIDE,[2],27 mmol/L
same,CHLORIDE,[2],104.5 MEQ/L
same,CHOLESTEROL,[2],70 mg/dL
same,CREATININE,[2],0.15 mg/dL
same,GLUCOSE,[2],152 mg/dL
same,LACTATE DEHYDROGENASE,[2],156 u/L
same,LIPASE,[2],8.5 u/L
same,PHOSPHORUS,[2],13.1 mg/dL
same,POTASSIUM,[2],6.73 MEQ/L
same,SODIUM,[2],149.4 MEQ/L
same,TOTAL BILIRUBIN,[2],0.15 mg/dL
same,TOTAL PROTEIN,[2],5.9 G/DL
same,URIC ACID,[2],2.25 mg/dL
same,ABSOLUTE BASOPHIL,"dose level M1, time 14 day",0 CELLS/uL
same,ABSOLUTE EOSINOPHIL,"dose level M1, time 14 day",0 CELLS/uL
same,ABSOLUTE LYMPHOCYTE,"dose level M1, time 14 day",12693.75 CELLS/uL
same,ABSOLUTE MONOCYTE,"dose level M1, time 14 day",445.5 CELLS/uL
same,ABSOLUTE SEGMENTED NEUTROPHIL,"dose level M1, time 14 day",2010.75 CELLS/uL
same,BASOPHIL,"dose level M1, time 14 day",0%
same,EOSINOPHIL,"dose level M1, time 14 day",0%
same,ERYTHROCYTE COUNT,"dose level M1, time 14 day",5.78 x10E6/uL
same,HEMATOCRIT,"dose level M1, time 14 day",35.65%
same,HEMOGLOBIN,"dose level M1, time 14 day",12.93 G/DL
same,LEUKOCYTE COUNT,"dose level M1, time 14 day",15.15 x10E3/uL
same,LYMPHOCYTE,"dose level M1, time 14 day",83.25%
same,MEAN CORPUSCULAR HEMOGLOBIN,"dose level M1, time 14 day",22.38 pg
same,MEAN CORPUSCULAR HEMOGLOBIN CONCENTRATION,"dose level M1, time 14 day",36.27 G/DL
same,MEAN CORPUSCULAR VOLUME,"dose level M1, time 14 day",61.73 fL
same,MONOCYTE,"dose level M1, time 14 day",3.25%
same,NEUTROPHIL,"dose level M1, time 14 day",13.5%
same,NUCLEATED RED BLOOD CELLS,"dose level M1, time 14 day",0 /100WBC
same,PLATELET COUNT,"dose level M1, time 14 day",856.5 x10E3/uL
same,ALANINE AMINOTRANSFERASE,"dose level M1, time 14 day",62.75 u/L
same,ALBUMIN,"dose level M1, time 14 day",4.12 G/DL
same,ALKALINE PHOSPHATASE,"dose level M1, time 14 day",336 u/L
same,ASPARTATE AMINOTRANSFERASE,"dose level M1, time 14 day",83.25 u/L
same,BLOOD UREA NITROGEN,"dose level M1, time 14 day",16.5 mg/dL
same,CARBON DIOXIDE,"dose level M1, time 14 day",32 mmol/L
same,CHLORIDE,"dose level M1, time 14 day",100.75 MEQ/L
same,CHOLESTEROL,"dose level M1, time 14 day",75.75 mg/dL
same,CREATININE,"dose level M1, time 14 day",0.21 mg/dL
same,GLUCOSE,"dose level M1, time 14 day",144 mg/dL
same,LACTATE DEHYDROGENASE,"dose level M1, time 14 day",122.25 u/L
same,LIPASE,"dose level M1, time 14 day",8.75 u/L
same,PHOSPHORUS,"dose level M1, time 14 day",13.35 mg/dL
same,POTASSIUM,"dose level M1, time 14 day",7.05 MEQ/L
same,SODIUM,"dose level M1, time 14 day",145.78 MEQ/L
same,TOTAL BILIRUBIN,"dose level M1, time 14 day",0.1 mg/dL
same,TOTAL PROTEIN,"dose level M1, time 14 day",6.1 G/DL
same,URIC ACID,"dose level M1, time 14 day",1.88 mg/dL
